Measurements taken from ChEMBL document CHEMBL1201862, “PubChem BioAssay data set” (2004).
Active and inactive are the calls of the source.

Experiments:
Mu-type opioid receptor = Mu-type opioid receptor (Homo sapiens, UniProt P35372); assay: SAR Analysis of Agonists of the MOR Receptor using an Image-Based Assay - Set 3. [Related pubchem assays (depositor defined):AID1777, AID1785, AID1786, AID1966, AID2133, AID2136, AID2284, AID2285, AID2352]; format: functional
[1] = molecular target: Delta-type opioid receptor (Homo sapiens, UniProt P41143); assay: SAR Analysis of Agonists of the DOR Receptor using an Image-Based Assay - Set 3. [Related pubchem assays (depositor defined):AID1777, AID1786]; format: functional
[2] = molecular target: T1, Kappa-type opioid receptor (Homo sapiens, UniProt P41145); assay: kappa opioid receptor activation by imaging – image-based, set 3, SAR follow-up (AID 488833); format: functional
[3] = molecular target: T1, Kappa-type opioid receptor; assay: SAR analysis of small molecule agonists of the kappa opioid receptor via a luminescent beta-arrestin assay - Set 3. [Related pubchem assays (depositor defined):AID1777, AID1785, AID1786, AID1966, AID2133, AID2136, AID2284, AID2500]; format: functional
[4] = molecular target: T2, Tyrosine-protein phosphatase non-receptor type 22 (Homo sapiens, UniProt Q9Y2R2); assay: SAR LYP1 Fluorescent Assay using OMFP substrate for In Vitro dose response studies - Set 3. [Related pubchem assays (depositor defined):AID1779, AID1784, AID2140, AID2686]; format: functional
T2 sequence (Q9Y2R2 whole entry): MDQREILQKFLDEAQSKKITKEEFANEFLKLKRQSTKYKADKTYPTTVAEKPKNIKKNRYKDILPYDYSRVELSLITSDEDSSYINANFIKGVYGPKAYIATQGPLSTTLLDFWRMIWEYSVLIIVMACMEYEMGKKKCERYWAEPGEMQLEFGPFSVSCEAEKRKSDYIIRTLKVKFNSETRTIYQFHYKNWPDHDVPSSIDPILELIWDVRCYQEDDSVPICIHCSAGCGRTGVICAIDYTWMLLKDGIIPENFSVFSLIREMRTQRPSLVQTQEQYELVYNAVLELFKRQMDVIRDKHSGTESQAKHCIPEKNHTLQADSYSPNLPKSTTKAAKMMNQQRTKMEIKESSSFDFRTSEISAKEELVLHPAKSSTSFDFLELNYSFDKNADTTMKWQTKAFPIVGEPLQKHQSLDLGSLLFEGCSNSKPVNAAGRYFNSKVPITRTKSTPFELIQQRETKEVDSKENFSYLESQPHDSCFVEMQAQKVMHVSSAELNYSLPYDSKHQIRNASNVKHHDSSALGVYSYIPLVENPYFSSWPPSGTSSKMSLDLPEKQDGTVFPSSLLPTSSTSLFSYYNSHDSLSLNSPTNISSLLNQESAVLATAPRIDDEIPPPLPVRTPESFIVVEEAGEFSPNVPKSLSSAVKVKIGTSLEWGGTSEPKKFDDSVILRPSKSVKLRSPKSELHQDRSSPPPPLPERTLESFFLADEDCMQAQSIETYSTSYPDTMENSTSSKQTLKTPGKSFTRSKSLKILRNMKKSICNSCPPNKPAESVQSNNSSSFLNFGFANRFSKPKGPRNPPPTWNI

[5] = molecular target: T2, Tyrosine-protein phosphatase non-receptor type 22; assay: SAR LYP1 Fluorescent Assay using OMFP substrate for In Vitro dose response studies - Set 2. [Related pubchem assays (depositor defined):AID1779, AID1784, AID2140, AID449726, AID488869]; format: functional
[6] = molecular target: T2, Tyrosine-protein phosphatase non-receptor type 22; assay: inhibition of lymphoid tyrosine phosphatase LYP – biochemical, pCAP fluorogenic substrate, fluorescence, set 3, SAR follow-up (AID 449727); format: functional
[7] = molecular target: T3, Tyrosine-protein phosphatase non-receptor type 7 (Homo sapiens, UniProt P35236); assay: inhibition of hematopoietic tyrosine phosphatase HePTP – biochemical, set 2, SAR follow-up (AID 449736); format: functional
T3 sequence (P35236 whole entry): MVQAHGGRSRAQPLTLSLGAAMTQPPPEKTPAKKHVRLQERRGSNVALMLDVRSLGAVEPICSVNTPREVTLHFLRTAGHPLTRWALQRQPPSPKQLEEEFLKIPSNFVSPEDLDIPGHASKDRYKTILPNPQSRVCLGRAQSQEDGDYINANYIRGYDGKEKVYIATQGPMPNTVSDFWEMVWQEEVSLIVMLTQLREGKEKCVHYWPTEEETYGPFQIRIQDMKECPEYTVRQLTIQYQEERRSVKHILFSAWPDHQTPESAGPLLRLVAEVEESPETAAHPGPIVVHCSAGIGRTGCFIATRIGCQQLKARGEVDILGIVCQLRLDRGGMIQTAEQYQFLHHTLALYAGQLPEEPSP

[8] = molecular target: T2, Tyrosine-protein phosphatase non-receptor type 22; assay: SAR LYP1 Fluorescent Assay using pCAP substrate for In Vitro dose response studies - Set 2. [Related pubchem assays (depositor defined):AID1779, AID1784, AID2135, AID449727]; format: functional
[9] = molecular target: Dual specificity tyrosine-phosphorylation-regulated kinase 1A (Rattus norvegicus, UniProt Q63470); format: biochemical, Homo sapiens
Insulin-degrading enzyme = molecular target: T4, Insulin-degrading enzyme (Homo sapiens, UniProt P14735); assay: Dose Response: Fluorescence polarization-based cell-based high throughput dose response assay for inhibitors of insulin-degrading enzyme (IDE). [Related pubchem assays: 434962 (Primary screen (IDE inhibitors in singlicate)), 449730 (Counterscreen (Cytotoxicity in triplicate)), 435028 (Confirmation (IDE inhibitors in triplicate)), 434984 (Summary …; format: functional
T4 sequence (P14735 whole entry): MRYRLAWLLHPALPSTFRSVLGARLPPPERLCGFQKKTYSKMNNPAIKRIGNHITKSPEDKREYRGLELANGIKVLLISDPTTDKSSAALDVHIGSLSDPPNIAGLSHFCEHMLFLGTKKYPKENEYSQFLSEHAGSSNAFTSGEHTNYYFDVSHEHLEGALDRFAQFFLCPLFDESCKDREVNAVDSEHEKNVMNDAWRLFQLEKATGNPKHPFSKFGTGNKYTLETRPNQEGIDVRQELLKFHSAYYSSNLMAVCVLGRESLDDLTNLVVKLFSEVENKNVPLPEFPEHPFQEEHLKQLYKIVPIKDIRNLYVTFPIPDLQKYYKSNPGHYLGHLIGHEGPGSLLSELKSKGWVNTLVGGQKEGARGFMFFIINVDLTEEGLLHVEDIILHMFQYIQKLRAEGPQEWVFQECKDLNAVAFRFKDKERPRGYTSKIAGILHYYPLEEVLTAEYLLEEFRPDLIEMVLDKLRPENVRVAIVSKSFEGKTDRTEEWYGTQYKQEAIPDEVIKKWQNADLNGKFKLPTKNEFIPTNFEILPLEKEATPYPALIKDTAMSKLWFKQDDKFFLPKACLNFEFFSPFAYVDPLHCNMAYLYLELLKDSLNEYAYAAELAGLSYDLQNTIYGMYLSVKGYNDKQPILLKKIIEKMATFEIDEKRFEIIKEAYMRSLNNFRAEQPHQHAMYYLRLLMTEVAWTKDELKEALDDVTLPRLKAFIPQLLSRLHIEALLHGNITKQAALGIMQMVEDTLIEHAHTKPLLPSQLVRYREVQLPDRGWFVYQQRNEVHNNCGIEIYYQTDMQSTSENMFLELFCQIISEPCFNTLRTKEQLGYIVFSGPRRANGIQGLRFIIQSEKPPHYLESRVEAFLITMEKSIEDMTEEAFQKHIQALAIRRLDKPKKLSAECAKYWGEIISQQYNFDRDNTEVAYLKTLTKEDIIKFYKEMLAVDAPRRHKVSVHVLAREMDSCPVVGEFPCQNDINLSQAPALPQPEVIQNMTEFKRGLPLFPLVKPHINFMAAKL

[10] = molecular target: Intestinal-type alkaline phosphatase (Homo sapiens, UniProt P09923); assay: inhibition of human intestinal alkaline phosphatase – biochemical, dose response (AID 488876); format: functional
[11] = molecular target: T5, Alkaline phosphatase, tissue-nonspecific isozyme (Homo sapiens, UniProt P05186); assay: TNAP enzyme inhibition by screening hits, dose response, selectivity assay for mouse IAP inhibitor project, biochemical, human TNAP, uHTS hits (AID 488906); format: functional
T5 sequence (P05186 whole entry): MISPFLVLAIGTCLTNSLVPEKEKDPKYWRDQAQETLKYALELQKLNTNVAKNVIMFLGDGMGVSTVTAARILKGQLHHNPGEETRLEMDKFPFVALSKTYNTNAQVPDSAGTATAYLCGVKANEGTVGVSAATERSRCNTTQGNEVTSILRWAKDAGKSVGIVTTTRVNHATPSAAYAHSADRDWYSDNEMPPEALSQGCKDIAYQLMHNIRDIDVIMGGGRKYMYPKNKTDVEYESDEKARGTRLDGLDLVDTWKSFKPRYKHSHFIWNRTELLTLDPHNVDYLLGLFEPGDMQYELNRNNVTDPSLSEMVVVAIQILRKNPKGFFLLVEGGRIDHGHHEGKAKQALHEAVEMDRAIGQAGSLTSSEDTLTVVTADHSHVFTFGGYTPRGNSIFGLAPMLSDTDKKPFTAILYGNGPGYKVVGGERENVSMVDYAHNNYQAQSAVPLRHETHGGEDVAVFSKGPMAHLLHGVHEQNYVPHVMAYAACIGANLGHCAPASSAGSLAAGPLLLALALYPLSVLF

[12] = Counterscreen for IDE inhibitors: Luminescence-based cell-based high throughput dose response assay to identify compounds that are cytotoxic to HEK cells. [Related pubchem assays: 434962 (Primary screen (IDE inhibitors in singlicate)), 449730 (Counterscreen (Cytotoxicity in triplicate)), 435028 (Confirmation (IDE inhibitors in triplicate)) …; format: functional; conditions: HEK293
[13] = molecular target: Intestinal-type alkaline phosphatase (Mus musculus, UniProt P24822); assay: PubChem AID 488785; format: functional
Intestinal-type alkaline phosphatase (Mus musculus, UniProt P24822), sequence (P24822 whole entry): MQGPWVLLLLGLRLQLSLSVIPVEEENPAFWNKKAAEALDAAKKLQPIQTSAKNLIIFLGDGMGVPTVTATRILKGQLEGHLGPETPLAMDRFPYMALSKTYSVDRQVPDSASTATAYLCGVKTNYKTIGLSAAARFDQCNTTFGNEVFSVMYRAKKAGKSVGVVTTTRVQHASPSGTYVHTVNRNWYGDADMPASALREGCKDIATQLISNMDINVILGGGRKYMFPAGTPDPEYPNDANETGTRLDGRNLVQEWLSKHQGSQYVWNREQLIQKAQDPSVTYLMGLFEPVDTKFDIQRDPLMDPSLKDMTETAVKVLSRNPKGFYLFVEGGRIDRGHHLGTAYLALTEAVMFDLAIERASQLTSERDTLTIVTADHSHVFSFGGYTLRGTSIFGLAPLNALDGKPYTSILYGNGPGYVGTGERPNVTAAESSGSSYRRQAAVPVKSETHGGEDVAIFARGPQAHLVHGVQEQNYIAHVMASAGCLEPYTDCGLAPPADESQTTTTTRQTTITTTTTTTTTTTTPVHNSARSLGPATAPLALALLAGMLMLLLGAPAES

T1 sequence (P41145 whole entry): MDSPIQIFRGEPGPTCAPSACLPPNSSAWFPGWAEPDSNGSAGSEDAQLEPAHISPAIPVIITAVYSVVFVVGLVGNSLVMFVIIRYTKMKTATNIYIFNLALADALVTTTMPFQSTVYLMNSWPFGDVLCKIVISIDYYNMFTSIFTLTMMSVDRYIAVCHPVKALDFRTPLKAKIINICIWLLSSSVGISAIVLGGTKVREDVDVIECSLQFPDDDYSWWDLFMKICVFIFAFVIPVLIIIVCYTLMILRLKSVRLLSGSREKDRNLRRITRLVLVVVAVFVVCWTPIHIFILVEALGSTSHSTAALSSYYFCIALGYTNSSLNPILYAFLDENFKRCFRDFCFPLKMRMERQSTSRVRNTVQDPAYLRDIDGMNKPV
Mu-type opioid receptor, sequence (P35372 whole entry): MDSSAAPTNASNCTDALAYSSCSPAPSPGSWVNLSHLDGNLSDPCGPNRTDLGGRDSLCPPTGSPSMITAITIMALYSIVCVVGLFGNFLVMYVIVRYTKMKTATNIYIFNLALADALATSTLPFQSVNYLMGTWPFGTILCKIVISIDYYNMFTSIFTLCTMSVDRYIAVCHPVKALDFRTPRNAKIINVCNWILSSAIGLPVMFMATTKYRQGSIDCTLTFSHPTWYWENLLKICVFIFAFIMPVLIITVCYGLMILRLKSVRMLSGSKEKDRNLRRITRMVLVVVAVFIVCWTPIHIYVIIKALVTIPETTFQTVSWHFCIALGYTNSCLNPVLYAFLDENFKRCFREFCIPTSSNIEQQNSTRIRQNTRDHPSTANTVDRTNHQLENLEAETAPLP
Intestinal-type alkaline phosphatase (Homo sapiens, UniProt P09923), sequence (P09923 whole entry): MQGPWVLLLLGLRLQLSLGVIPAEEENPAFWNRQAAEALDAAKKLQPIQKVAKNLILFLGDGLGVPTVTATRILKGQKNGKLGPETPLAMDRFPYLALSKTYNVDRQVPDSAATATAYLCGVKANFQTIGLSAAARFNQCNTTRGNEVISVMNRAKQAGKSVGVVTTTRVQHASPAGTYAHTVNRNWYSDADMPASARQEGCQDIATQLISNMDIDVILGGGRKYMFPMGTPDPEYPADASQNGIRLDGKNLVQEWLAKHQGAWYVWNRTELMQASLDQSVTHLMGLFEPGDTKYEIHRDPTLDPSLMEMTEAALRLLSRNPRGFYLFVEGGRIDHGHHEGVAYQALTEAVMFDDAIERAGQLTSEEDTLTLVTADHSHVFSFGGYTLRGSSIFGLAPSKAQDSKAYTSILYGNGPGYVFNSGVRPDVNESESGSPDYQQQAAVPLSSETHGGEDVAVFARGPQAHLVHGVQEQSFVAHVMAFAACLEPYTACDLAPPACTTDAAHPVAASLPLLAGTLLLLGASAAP
Delta-type opioid receptor, sequence (P41143 whole entry): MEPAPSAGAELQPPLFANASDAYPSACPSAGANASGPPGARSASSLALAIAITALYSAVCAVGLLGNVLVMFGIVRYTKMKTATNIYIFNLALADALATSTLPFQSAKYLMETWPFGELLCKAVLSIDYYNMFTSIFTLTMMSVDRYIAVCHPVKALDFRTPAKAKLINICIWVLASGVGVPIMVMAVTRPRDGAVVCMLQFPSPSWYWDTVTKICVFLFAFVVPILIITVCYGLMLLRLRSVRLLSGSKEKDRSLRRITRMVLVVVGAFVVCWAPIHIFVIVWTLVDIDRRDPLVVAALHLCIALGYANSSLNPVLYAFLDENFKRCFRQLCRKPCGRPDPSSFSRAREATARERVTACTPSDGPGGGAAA

Compound: Cc1c(CSc2nnc(-c3ccccn3)n2Cc2ccco2)cccc1[N+](=O)[O-]
- EC50 (Mu-type opioid receptor): > 32 µM (inactive)
- EC50 [1]: > 64 µM (inactive)
- EC50 [2]: 12.2 µM (inactive)
- EC50 [3]: 8.21 µM (active)

Compound: NC1=NC(=O)/C(=C/c2ccc(OCC(=O)O)cc2)S1
- IC50 [4]: > 100 µM (inactive)
- IC50 [5]: > 100 µM (inactive)
- IC50 [6]: 44.8 µM (active)
- IC50 [7]: > 100 µM (inactive)
- IC50 [8]: 55 µM (active)

Compound: COc1cc(/C=N/N2C(=O)CSC2=S)ccc1O
- AC50 [9]: 9.55 µM (active)
- IC50 (Insulin-degrading enzyme): > 6.22 µM (active)
- IC50 [10]: 21.3 µM (active)
- IC50 [11]: > 100 µM (inactive)
- IC50 [12]: > 55.7 µM (not active)
- IC50 [13]: 2.2 µM (active)
